In ChEMBL document CHEMBL1201862, “PubChem BioAssay data set” (2004):
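Compound exposure: 48 hours, 5 concentrations, 96-well plates. GI50 = concentration required for 50% inhibition of growth.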 The source made the active and inactive calls. No stated cut-off is given here; in the data, active = GI50 up to about 1.1 µM and inactive = higher.

What was measured:
Experiment in all cases: DTP human tumour cell line panel, 48 h
UO-31 = test system: UO-31
KM12 = test system: KM12
HCT-15 = test system: HCT-15
MOLT-4 = test system: MOLT-4
IGROV-1 = test system: IGROV-1
RXF 393 = test system: RXF 393
A498 = test system: A498
HOP-62 = test system: HOP-62
SNB-75 = test system: SNB-75
NCI-H226 = test system: NCI-H226
Malme-3M = test system: Malme-3M
SF-268 = test system: SF-268
UACC-62 = test system: UACC-62
PC-3 = test system: PC-3
CCRF-CEM = test system: CCRF-CEM
HOP-92 = test system: HOP-92
HCC 2998 = test system: HCC 2998
MDA-MB-231 = test system: MDA-MB-231
NCI-H23 = test system: NCI-H23
CAKI-1 = test system: CAKI-1
MDA-MB-435 = test system: MDA-MB-435
NCI/ADR-RES = test system: NCI/ADR-RES
SK-MEL-2 = test system: SK-MEL-2
ACHN = test system: ACHN
UACC-257 = test system: UACC-257
SK-OV-3 = test system: SK-OV-3
SN12C = test system: SN12C
SK-MEL-28 = test system: SK-MEL-28
TK-10 = test system: TK-10
OVCAR-4 = test system: OVCAR-4
DU-145 = test system: DU-145
SW-620 = test system: SW-620
RPMI-8226 = test system: RPMI-8226
U-251 = test system: U-251
HT-29 = test system: HT-29
A549 = test system: A549
SR = test system: SR
EKVX = test system: EKVX
HCT-116 = test system: HCT-116
NCI-H460 = test system: NCI-H460
COLO 205 = test system: COLO 205
K562 = test system: K562
LOX IMVI = test system: LOX IMVI
786-0 = test system: 786-0
OVCAR-5 = test system: OVCAR-5
SNB-19 = test system: SNB-19
OVCAR-8 = test system: OVCAR-8
OVCAR-3 = test system: OVCAR-3
NCI-H522 = test system: NCI-H522
MCF7 = test system: MCF7
BT-549 = test system: BT-549
Hs-578T = test system: Hs-578T
SK-MEL-5 = test system: SK-MEL-5
SF-539 = test system: SF-539
M14 = test system: M14
SF-295 = test system: SF-295
HL-60 = test system: HL-60
T47D = test system: T47D

## Brc1ccc2[nH]cc([C@H]3CN[C@@H](c4c[nH]c5ccc(Br)cc45)CN3)c2c1
UO-31
  GI50: 1910 nM (inactive)
KM12
  GI50: 1760 nM (inactive)
HCT-15
  GI50: 2040 nM
MOLT-4
  GI50: 2110 nM (inactive)
IGROV-1
  GI50: 1870 nM (inactive)
RXF 393
  GI50: 2650 nM (inactive)
A498
  GI50: 2000 nM (inactive)
HOP-62
  GI50: 3370 nM (inactive)
SNB-75
  GI50: 1830 nM (inactive)
NCI-H226
  GI50: 2450 nM (inactive)
Malme-3M
  GI50: 2200 nM (inactive)
SF-268
  GI50: 2650 nM (inactive)
UACC-62
  GI50: 5040 nM (inactive)
PC-3
  GI50: 1880 nM (inactive)
CCRF-CEM
  GI50: 2220 nM (inactive)
HOP-92
  GI50: 1870 nM (inactive)
HCC 2998
  GI50: 1690 nM (inactive)
MDA-MB-231
  GI50: 1620 nM (inactive)
NCI-H23
  GI50: 1600 nM (inactive)
CAKI-1
  GI50: 1820 nM (inactive)
MDA-MB-435
  GI50: 1770 nM (inactive)
NCI/ADR-RES
  GI50: 1930 nM (inactive)
SK-MEL-2
  GI50: 2090 nM (inactive)
ACHN
  GI50: 1930 nM (inactive)
UACC-257
  GI50: 3640 nM (inactive)
SK-OV-3
  GI50: 2490 nM (inactive)
SN12C
  GI50: 2910 nM (inactive)
SK-MEL-28
  GI50: 8050 nM (inactive)
TK-10
  GI50: 2260 nM (inactive)
OVCAR-4
  GI50: 1940 nM (inactive)
DU-145
  GI50: 2230 nM (inactive)
SW-620
  GI50: 2510 nM (inactive)
RPMI-8226
  GI50: 2160 nM (inactive)
U-251
  GI50: 2120 nM (inactive)
HT-29
  GI50: 1970 nM (inactive)
A549
  GI50: 2520 nM (inactive)
SR
  GI50: 1920 nM (inactive)
EKVX
  GI50: 2610 nM (inactive)
HCT-116
  GI50: 2020 nM (inactive)
NCI-H460
  GI50: 2360 nM (inactive)
COLO 205
  GI50: 1730 nM (inactive)
K562
  GI50: 1990 nM (inactive)
LOX IMVI
  GI50: 1440 nM (inactive)
786-0
  GI50: 2290 nM (inactive)
OVCAR-5
  GI50: 2750 nM (inactive)
SNB-19
  GI50: 2830 nM (inactive)
OVCAR-8
  GI50: 1790 nM (inactive)
OVCAR-3
  GI50: 1790 nM (inactive)
NCI-H522
  GI50: 1790 nM (inactive)
MCF7
  GI50: 1580 nM (inactive)
BT-549
  GI50: > 41100 nM (inactive)
Hs-578T
  GI50: 4310 nM (inactive)
SK-MEL-5
  GI50: 2560 nM (inactive)
SF-539
  GI50: 2000 nM (inactive)
M14
  GI50: 1810 nM (inactive)
SF-295
  GI50: 4970 nM (inactive)
HL-60
  GI50: 1770 nM (inactive)
T47D
  GI50: 2660 nM (inactive)
